# In US20060088573A1, “Composition having action preventing or alleviating symtoms or diseases due to aging of blood vessels” (Suntory Limited, priority 2003, published 2006):
# Test system: thoracic arteries of old rats
# Experiment: Acetylcholine blood vessel relaxation reaction test on thoracic artery rings after 3 months of diet
# Format: in vivo, rat
# Description: The effect of triglyceride (arachidonic acid-containing oil (SUNTGA40S)) having arachidonic acid as a component fatty acid prepared in Reference Example 1 on the acetylcholine blood vessel relaxation reaction was investigated using rats. As the test groups of old rats, 15 19-month old male Fischer rats were divided into a control diet group (8 rats: OC group) and a SUNTGA40S compound diet group (7 rats: OA group).
# The amount of intake of rats was about 20 g and the daily intake of SUNTGA40S per rat was 100 mg. Of the total fatty acids bonded with the arachidonic acid-containing oil (SUNTGA40S) prepared in Reference Example 1, 40% is arachidonic acid, so the daily intake of arachidonic acid per rat became 40 mg. This 40 mg corresponds to 133 mg/60 kg/day converted to human intake.
# In the third month of raising (in the case of old rats, 22-month age and in the case of young rats, four-month age), the thoracic arteries were excised. Part was used for the in vitro blood vessel relaxation reaction test, while the remaining blood vessels were used for analysis of the fatty acid composition. […]
structure (smiles),measurement,setting,value
"CCCCC/C=C\C/C=C\C/C=C\C/C=C\CCCC(=O)OC(COC(=O)CCCCCCC)COC(=O)CCCCCCC [8A8, 1,3-capryloyl-2-arachidonoyl-glycerol]",average blood vessel relaxation rate by acetylcholine 10^-7M,"old male Fischer rats (22-month age), 8A8 diet 3 months (40 mg arachidonic acid/rat/day), old control diet 52.3%, young control diet 80.5%",62.7%
same,blood vessel relaxation response,"old rats, 8A8 diet 3 months, vs old rats on control diet",improved
